Assay results from patent publication US6699857B1, “Tetrahydroquinolinyl 6-methyldihydrothiadiazinone derivatives and use thereof” (Bayer Aktiengesellschaft, priority 1999, dated 2004).

Row | SMILES | melting point
1 | CC1SC(=O)NN=C1c1ccc2c(c1)CCCN2 (stereo not drawn) [Example 2] | 176 to 178 °C
2 | CCNC(=O)N1CCCc2cc(C3=NNC(=O)SC3C)ccc21 (stereo not drawn) [Example 3] | 122 to 124 °C (dec.)
3 | CCCNC(=O)N1CCCc2cc(C3=NNC(=O)SC3C)ccc21 (stereo not drawn) [Example 4] | 151 to 153 °C
4 | CCCCNC(=O)N1CCCc2cc(C3=NNC(=O)SC3C)ccc21 (stereo not drawn) [Example 5] | 133 to 134 °C
5 | CC1SC(=O)NN=C1c1ccc2c(c1)CCCN2C(=O)Nc1ccccc1 (stereo not drawn) [Example 6] | 213 to 214 °C (dec.)
6 | CC1SC(=O)NN=C1c1ccc2c(c1)CCCN2C(=O)Nc1ccc(Cl)cc1 (stereo not drawn) [Example 7] | 218 to 220 °C (dec.)
7 | CC1SC(=O)NN=C1c1ccc2c(c1)CCCN2C(=O)Nc1cccc2ccccc12 (stereo not drawn) [Example 8] | 165 to 166 °C (dec.)
8 | Cc1ccccc1NC(=O)N1CCCc2cc(C3=NNC(=O)SC3C)ccc21 (stereo not drawn) [Example 9] | 153 to 154 °C
9 | CC1SC(=O)NN=C1c1ccc2c(c1)CCCN2C(=O)NCc1ccc(F)cc1 (stereo not drawn) [Example 10] | 158 to 160 °C
10 | CC1SC(=O)NN=C1c1ccc2c(c1)CCCN2C(=O)c1ccco1 (stereo not drawn) [Example 11] | 159 to 161 °C
11 | CC1SC(=O)NN=C1c1ccc2c(c1)CCCN2C(=O)c1ccccc1 (stereo not drawn) [Example 13] | 202 to 204 °C
12 | CC1SC(=O)NN=C1c1ccc2c(c1)CCCN2C(=O)Cc1c(Cl)cccc1Cl (stereo not drawn) [Example 14] | 188 to 189 °C
13 | CC1SC(=O)NN=C1c1ccc2c(c1)CCCN2C(=O)C1CCCCC1 (stereo not drawn) [Example 16] | 148 to 150 °C (dec.)
14 | CC1SC(=O)NN=C1c1ccc2c(c1)CCCN2C(=O)CCc1ccccc1 (stereo not drawn) [Example 17] | 172 to 174 °C
15 | CC1SC(=O)NN=C1c1ccc2c(c1)CCCN2C(=O)c1cccs1 (stereo not drawn) [Example 18] | 190 to 191 °C
